# Results reported in the supplement of paper PMC10307832.
# Columns and labels:
# Assay in all cases: relative viability (nuclei count vs DMSO), 5 days (fraction); higher = more cells survive
# [1] = system: A-427
# How it was run: (§1)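 Relative viability equals treated-well nuclei counts divided by vehicle-well nuclei counts. Counts came from 4× images of lung cancer cell lines grown in 1536-well plates for 5 days after pin-tool dosing on the day after seeding. Dosing used one drug alone or a fixed anchor-drug dose plus five library-drug doses (not always all listed) in √10 steps, and values are medians of duplicate plates.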
# [2] = system: CAL-12T
# How it was run: as §1
# [3] = system: COR-L 105
# How it was run: as §1
# [4] = system: EMC-BAC-2
# How it was run: as §1
# [5] = system: HARA
# How it was run: as §1
# [6] = system: HCC-366
# How it was run: as §1
# [7] = system: HCC-827
# How it was run: as §1
# [8] = system: HOP-62
# How it was run: as §1
# [9] = system: LCLC-103H
# How it was run: as §1
# [10] = system: NCI-H1355
# How it was run: as §1
# [11] = system: NCI-H1395
# How it was run: as §1
# [12] = system: NCI-H1437
# How it was run: as §1
# [13] = system: NCI-H1755
# How it was run: as §1
# [14] = system: NCI-H1792
# How it was run: as §1
# [15] = system: NCI-H1915
# How it was run: as §1
# [16] = system: NCI-H1975
# How it was run: as §1
# [17] = system: NCI-H2009
# How it was run: as §1
# [18] = system: NCI-H2228
# How it was run: as §1
# [19] = system: NCI-H23
# How it was run: as §1
# [20] = system: NCI-H460
# How it was run: as §1
# [21] = system: NCI-H727
# How it was run: as §1
# [22] = system: SK-LU-1
# How it was run: as §1
# [23] = system: SW 1573
# How it was run: as §1
smiles,measurement,setting,value
CC1(C)CCC(c2ccc(Cl)cc2)=C(CN2CCN(c3ccc(C(=O)NS(=O)(=O)c4ccc(N[C@H](CCN5CCOCC5)CSc5ccccc5)c(S(=O)(=O)C(F)(F)F)c4)cc3)CC2)C1 [Navitoclax] + CS(=O)(=O)N1CCN(Cc2cc3nc(-c4cccc5[nH]ncc45)nc(N4CCOCC4)c3s2)CC1 [Pictilisib] (partner 1 µM),relative viability,[1]; first compound 0.005 µM,0.675
same,relative viability,[1]; first compound 0.01581 µM,0.675
same,relative viability,[1]; first compound 0.05 µM,0.659
same,relative viability,[1]; first compound 0.1581 µM,0.753
same,relative viability,[1]; first compound 0.5 µM,0.799
same,relative viability,[2]; first compound 0.005 µM,0.549
same,relative viability,[2]; first compound 0.01581 µM,0.419
same,relative viability,[2]; first compound 0.05 µM,0.404
same,relative viability,[2]; first compound 0.1581 µM,0.522
same,relative viability,[2]; first compound 0.5 µM,0.393
same,relative viability,[3]; first compound 0.005 µM,0.352
same,relative viability,[3]; first compound 0.01581 µM,0.45
same,relative viability,[3]; first compound 0.05 µM,0.41
same,relative viability,[3]; first compound 0.1581 µM,0.368
same,relative viability,[3]; first compound 0.5 µM,0.308
same,relative viability,[4]; first compound 0.005 µM,0.506
same,relative viability,[4]; first compound 0.01581 µM,0.646
same,relative viability,[4]; first compound 0.05 µM,0.565
same,relative viability,[4]; first compound 0.1581 µM,0.548
same,relative viability,[4]; first compound 0.5 µM,0.6
same,relative viability,[5]; first compound 0.005 µM,0.389
same,relative viability,[5]; first compound 0.01581 µM,0.372
same,relative viability,[5]; first compound 0.05 µM,0.384
same,relative viability,[5]; first compound 0.1581 µM,0.425
same,relative viability,[5]; first compound 0.5 µM,0.381
same,relative viability,[6]; first compound 0.005 µM,0.159
same,relative viability,[6]; first compound 0.01581 µM,0.174
same,relative viability,[6]; first compound 0.05 µM,0.207
same,relative viability,[6]; first compound 0.1581 µM,0.107
same,relative viability,[6]; first compound 0.5 µM,0.15
same,relative viability,[7]; first compound 0.005 µM,1.12
same,relative viability,[7]; first compound 0.01581 µM,1
same,relative viability,[7]; first compound 0.05 µM,0.933
same,relative viability,[7]; first compound 0.1581 µM,0.78
same,relative viability,[7]; first compound 0.5 µM,0.975
same,relative viability,[8]; first compound 0.005 µM,0.803
same,relative viability,[8]; first compound 0.01581 µM,0.921
same,relative viability,[8]; first compound 0.05 µM,0.5
same,relative viability,[8]; first compound 0.1581 µM,0.769
same,relative viability,[8]; first compound 0.5 µM,1.17
same,relative viability,[9]; first compound 0.005 µM,0.588
same,relative viability,[9]; first compound 0.01581 µM,0.611
same,relative viability,[9]; first compound 0.05 µM,0.664
same,relative viability,[9]; first compound 0.1581 µM,0.611
same,relative viability,[9]; first compound 0.5 µM,0.799
same,relative viability,[10]; first compound 0.005 µM,0.461
same,relative viability,[10]; first compound 0.01581 µM,0.42
same,relative viability,[10]; first compound 0.05 µM,0.416
same,relative viability,[10]; first compound 0.1581 µM,0.497
same,relative viability,[10]; first compound 0.5 µM,0.427
same,relative viability,[11]; first compound 0.005 µM,0.692
same,relative viability,[11]; first compound 0.01581 µM,0.645
same,relative viability,[11]; first compound 0.05 µM,0.563
same,relative viability,[11]; first compound 0.1581 µM,0.818
same,relative viability,[11]; first compound 0.5 µM,0.67
same,relative viability,[12]; first compound 0.005 µM,0.409
same,relative viability,[12]; first compound 0.01581 µM,0.537
same,relative viability,[12]; first compound 0.05 µM,0.501
same,relative viability,[12]; first compound 0.1581 µM,0.445
same,relative viability,[12]; first compound 0.5 µM,0.477
same,relative viability,[13]; first compound 0.005 µM,0.425
same,relative viability,[13]; first compound 0.01581 µM,0.434
same,relative viability,[13]; first compound 0.05 µM,0.252
same,relative viability,[13]; first compound 0.1581 µM,0.406
same,relative viability,[13]; first compound 0.5 µM,0.352
same,relative viability,[14]; first compound 0.005 µM,0.307
same,relative viability,[14]; first compound 0.01581 µM,0.283
same,relative viability,[14]; first compound 0.05 µM,0.163
same,relative viability,[14]; first compound 0.1581 µM,0.285
same,relative viability,[14]; first compound 0.5 µM,0.29
same,relative viability,[15]; first compound 0.005 µM,0.893
same,relative viability,[15]; first compound 0.01581 µM,1.02
same,relative viability,[15]; first compound 0.05 µM,1.01
same,relative viability,[15]; first compound 0.1581 µM,0.933
same,relative viability,[15]; first compound 0.5 µM,0.902
same,relative viability,[16]; first compound 0.005 µM,0.295
same,relative viability,[16]; first compound 0.01581 µM,0.32
same,relative viability,[16]; first compound 0.05 µM,0.304
same,relative viability,[16]; first compound 0.1581 µM,0.287
same,relative viability,[16]; first compound 0.5 µM,0.235
same,relative viability,[17]; first compound 0.005 µM,0.771
same,relative viability,[17]; first compound 0.01581 µM,1.09
same,relative viability,[17]; first compound 0.05 µM,0.961
same,relative viability,[17]; first compound 0.1581 µM,0.898
same,relative viability,[17]; first compound 0.5 µM,0.979
same,relative viability,[18]; first compound 0.005 µM,0.431
same,relative viability,[18]; first compound 0.01581 µM,0.526
same,relative viability,[18]; first compound 0.05 µM,0.367
same,relative viability,[18]; first compound 0.1581 µM,0.366
same,relative viability,[18]; first compound 0.5 µM,0.304
same,relative viability,[19]; first compound 0.005 µM,0.479
same,relative viability,[19]; first compound 0.01581 µM,0.498
same,relative viability,[19]; first compound 0.05 µM,0.483
same,relative viability,[19]; first compound 0.1581 µM,0.433
same,relative viability,[19]; first compound 0.5 µM,0.504
same,relative viability,[20]; first compound 0.005 µM,0.348
same,relative viability,[20]; first compound 0.01581 µM,0.419
same,relative viability,[20]; first compound 0.1581 µM,0.326
same,relative viability,[20]; first compound 0.5 µM,0.334
same,relative viability,[21]; first compound 0.005 µM,0.398
same,relative viability,[21]; first compound 0.01581 µM,0.423
same,relative viability,[21]; first compound 0.1581 µM,0.33
same,relative viability,[21]; first compound 0.5 µM,0.171
same,relative viability,[22]; first compound 0.005 µM,0.557
same,relative viability,[22]; first compound 0.01581 µM,0.725
same,relative viability,[22]; first compound 0.05 µM,0.499
same,relative viability,[22]; first compound 0.1581 µM,0.522
same,relative viability,[22]; first compound 0.5 µM,0.483
same,relative viability,[23]; first compound 0.005 µM,0.466
same,relative viability,[23]; first compound 0.01581 µM,0.54
same,relative viability,[23]; first compound 0.05 µM,0.464
same,relative viability,[23]; first compound 0.1581 µM,0.389
same,relative viability,[23]; first compound 0.5 µM,0.503
